This assay has as its target T1, human mAChR M1 (Homo sapiens, UniProt P11229).
T1 construct: hM1 and hM4 cDNAs were purchased from Missouri S&T cDNA Resource; host or cells: CHO-K1 cells, stably transfected with Lipofectamine2000
T1 sequence (P11229 1-460): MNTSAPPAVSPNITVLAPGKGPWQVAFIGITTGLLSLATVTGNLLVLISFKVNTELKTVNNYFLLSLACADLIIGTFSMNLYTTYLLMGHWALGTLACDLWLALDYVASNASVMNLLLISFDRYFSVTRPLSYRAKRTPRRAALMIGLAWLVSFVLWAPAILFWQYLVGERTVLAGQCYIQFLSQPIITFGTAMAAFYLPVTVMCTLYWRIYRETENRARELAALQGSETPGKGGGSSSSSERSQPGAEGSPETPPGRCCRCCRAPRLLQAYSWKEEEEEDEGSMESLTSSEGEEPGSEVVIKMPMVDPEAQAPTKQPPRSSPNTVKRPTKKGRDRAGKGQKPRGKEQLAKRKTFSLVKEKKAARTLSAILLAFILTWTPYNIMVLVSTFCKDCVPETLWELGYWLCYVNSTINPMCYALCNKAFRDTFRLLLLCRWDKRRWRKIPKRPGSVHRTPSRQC
In words: mAChR M1 cell-based functional assay (calcium mobilization, PAM mode, EC20 acetylcholine). To be noted: CHO-K1 cells expressing hM1, calcium flux (Fluo-4); for Emax: EC20 acetylcholine response; for EC50: concentration-dependent increase in the EC20 acetylcholine response. The text has this:
Chinese hamster ovary (CHO-K1) cells stably expressing rat (r)M1 were purchased from the American Type Culture Collection and cultured according to their indicated protocol. CHO cells stably expressing human (h)M2, hM3, and hM5 were described previously (Levey, et al., 1991); hM1 and hM4 cDNAs were purchased from Missouri S&T cDNA Resource; rM4 cDNA was provided by T. I. Bonner (National Institutes of Health, Bethesda, Md.). rM2 and rM3 were cloned from a rat brain cDNA library and sequence verified. hM1, rM2, rM3, hM4, and rM4 cDNAs were used to stably transfect CHO-K1 cells purchased from the American Type Culture Collection using Lipofectamine2000. To make stable rM2, hM2, rM3, hM4, and rM4 cell lines for use in calcium mobilization assays, these cells also were stably transfected with a chimeric G-protein (Gqi5) (provided by B. R. Conklin, University of California, San Francisco) using Lipofectamine 2000. rM1, hM1, rM3, hM3, rM5, and hM5 cells were grown in Ham's F-12 medium containing 10% heat-inactivated fetal bovine serum (FBS), 20 mM HEPES, and 50 µg/mL G418 sulfate. rM2-Gqi5, hM2-Gqi5, and hM4-Gqi5 cells were grown in the same medium also containing 500 μg/mL Hygromycin B. Stable rM4-Gqi5 cells were grown in DMEM containing 10% heat-inactivated FBS, 20 mM HEPES, 400 μg/mL G418 sulfate, and 500 μg/mL Hygromycin B.
For high throughput measurement of agonist-evoked increases in intracellular calcium, CHO-K1 cells stably expressing muscarinic receptors were plated in growth medium lacking G418 and hygromycin at 15,000 cells/20 μL/well in Greiner 384-well black-walled, tissue culture (TC)-treated, clear-bottom plates (VWR). Cells were incubated overnight at 37° C. and 5% CO2. The next day, cells were washed using an ELX 405 (BioTek) with four washes (80 μL) of assay buffer then aspirated to 20 μL. Next, 20 μL of 16 μM Fluo-4/acetoxymethyl ester (Invitrogen, Carlsbad, Calif.) prepared as a 2.3 mM stock in DMSO and mixed in a 1:1 ratio with 10% (w/v) Pluronic F-127 and diluted in assay buffer was added to the wells and the cell plates were incubated for 50 min at 37° C. and 5% CO2. Dye was removed by washing with the ELX 405 (four 80 μL washes of assay buffer) then aspirated to 20 μL. Compound master plates were formatted in an 11 point CRC format (1:3 dilutions) in 100% DMSO with a starting concentration of 10 mM using the BRAVO liquid handler (Agilent). Test compound CRCs were then transferred to daughter plates (240 nL) using the Echo acoustic plate reformatter (Labcyte, Sunnyvale, Calif.) and then diluted into assay buffer (40 μL) to a 2× stock using a Thermo Fisher Combi (Thermo Fisher Scientific, Waltham, Mass.).
Calcium flux was measured using the Functional Drug Screening System (FDSS) 6000 (Hamamatsu Corporation, Tokyo, Japan) as an increase in the fluorescent static ratio. Compounds were applied to cells (20 μL, 2×) using the automated system of the FDSS 6000 at 4 s into the 300 s protocol and the data were collected at 1 Hz. […] Agonist activity was analyzed as a concentration-dependent increase in calcium mobilization upon compound addition. Emax values for agonist activity are expressed relative to the maximum for acetylcholine. Positive allosteric modulator activity was analyzed as a concentration-dependent increase in the EC20 acetylcholine response. Antagonist activity was analyzed as a concentration-dependent decrease in the […] acetylcholine response. Concentration-response curves were generated using a four-parameter logistical equation in XLfit curve fitting software (IDBS, Bridgewater, N.J.) for Excel (Microsoft, Redmond, Wash.) or Prism (GraphPad Software, Inc., San Diego, Calif.).
Activity (EC50 and Emax) was determined in the mAChR M1 cell-based functional assay as described above and the data are shown in Table 2. The compound numbers correspond to the compound numbers used in Table 1.
On the technique in general: A change in cytosolic calcium serves as a functional read-out for many receptors and channels.

We go through 4 molecules from US20200131159A1, “POSITIVE ALLOSTERIC MODULATORS OF THE MUSCARINIC ACETYLCHOLINE RECEPTOR M1” (Vanderbilt University, priority 2018, published 2020).

Structures are written as SMILES.

Regarding `Cc1nc(-c2ccc(Cc3cc(C(=O)N[C@H]4CCOC[C@@H]4O)c4ncccc4c3C)cc2)co1` [compound 32, N-[(3R,4S)-3-hydroxytetrahydropyran-4-yl]-5-methyl-6-[[4-(2-methyloxazol-4-yl)phenyl]methyl]quinoline-8-carboxamide], the Emax (in general, the size of the effect at its maximum, as opposed to the concentration needed) amounted to 69% and the EC50 (usually the concentration needed to bring the measured effect to its halfway point) worked out at 336 nM.
As to `Cc1nc(-c2ccc(Cc3cc(C(=O)N[C@H]4CCCCC[C@@H]4O)c4ncccc4c3C)cc2)co1` [compound 33, N-[(1S,2S)-2-hydroxycycloheptyl]-5-methyl-6-[[4-(2-methyloxazol-4-yl)phenyl]methyl]quinoline-8-carboxamide], the Emax was determined as 75% and the EC50 worked out at 2040 nM.
`Cc1nc(-c2ccc(Cc3cc(C(=O)N[C@H]4CCCC[C@@H]4O)c4ncccc4c3C)cc2)co1` [compound 34, N-[(1S,2S)-2-hydroxycyclohexyl]-5-methyl-6-[[4-(2-methyloxazol-4-yl)phenyl]methyl]quinoline-8-carboxamide]: the Emax turned out to be 74% and the 50% effective concentration (EC50) is 562 nM.
For `Cc1nc(-c2ccc(Cc3cc(C(=O)NC4CCOCC4)c4ncccc4c3C)cc2)co1` [compound 35, 5-methyl-6-[[4-(2-methyloxazol-4-yl)phenyl]methyl]-N-tetrahydropyran-4-yl-quinoline-8-carboxamide], the Emax was 38% and the EC50 worked out at 1370 nM.
